Data published in patent publication US8017612B2, “Piperazine compound and use thereof as a HCV polymerase inhibitor” (priority 2006, dated 2011).

Assays:
[1] = biological target: T1, HCV polymerase (NS5B) type 1b (Hepatitis C virus genotype 1b, UniProt P26663); assay: Assay of enzyme (HCV polymerase) inhibitory activity, type 1b enzyme; format: biochemical, HCV BK strain (type 1b); details: HCV polymerase inhibitory activity (IC50), 1b, type 1b enzyme 0.5 μg/ml, 25° C., 60 min
T1 construct: a region encoding NS5B (J Virol 1991 March, 65(3), 1105-13, 544 amino acids after deletion of 47 amino acids on the C-terminal); 6xHis (C); made in house; host or cells: Escherichia coli
Procedure, shortened: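 NS5B from HCV BK strain (type 1b), C-terminal 47 aa deleted, C-terminal His6-tagged, E. coli-expressed, 0.5 μg/ml, with ~450 nt substrate RNA carrying the 3′ UTR (polyU, 3′X) at 5 μg/ml. Incubation 60 min at 25 °C with 50 μM ATP/GTP/CTP, 2 μM UTP plus [3H]UTP, pH 7.5 Tris.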

[2] = biological target: T2, HCV polymerase (NS5B) type 1a (Hepatitis C virus genotype 1a, UniProt P26664); assay: Assay of enzyme (HCV polymerase) inhibitory activity, type 1a enzyme; format: biochemical, HCV type 1a (cloned from the blood of patients); details: HCV polymerase inhibitory activity (IC50), 1a, type 1a enzyme 1.5 μg/ml, 25° C., 60 min
T2 construct: made in house; host or cells: Escherichia coli (by the 'similar method' of the 1b enzyme)
Procedure, shortened: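 Patient-derived type 1a NS5B (C-terminal 47-aa deletion, His-tagged, E. coli-expressed) at 1.5 μg/ml was reacted with 5 μg/ml 3′UTR-containing substrate RNA, 50 μM ATP/GTP/CTP, 2 μM UTP plus [3H]UTP, pH 7.5, 25° C for 60 min. TCA-precipitated RNA radioactivity was counted; IC50 from ± compound.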

## CCCc1ccc(CNC(=O)[C@H]2CN(C(C)=O)CCN2S(=O)(=O)c2ccc(OC(F)(F)F)cc2)cc1O [Example 624, (R)-4-acetyl-1-(4-trifluoromethoxy-benzenesulfonyl)-piperazine-2-carboxylic acid 3-hydroxy-4-propyl-benzylamide]
[1]
  IC50: 100 to 1000 nM
[2]
  IC50: > 1000 nM

## CCC(F)(F)c1ccc(CNC(=O)[C@H]2CN(c3nc(OC)ns3)CCN2S(=O)(=O)c2ccc(OC(F)(F)F)cc2)cc1 [Example 625, (R)-4-(3-methoxy-[1,2,4]thiadiazol-5-yl)-1-(4-trifluoromethoxy-benzenesulfonyl)-piperazine-2-carboxylic acid 4-(1,1-difluoro-propyl)-benzylamide]
[1]
  IC50: < 100 nM
[2]
  IC50: < 100 nM

## CCC(F)(F)c1ccc(CNC(=O)[C@H]2CN(c3ccn4ncnc4n3)CCN2S(=O)(=O)c2ccc(OC(F)(F)F)cc2)cc1 [Example 626, (R)-4-[1,2,4]triazolo[1,5-a]pyrimidin-5-yl-1-(4-trifluoromethoxy-benzenesulfonyl)-piperazine-2-carboxylic acid 4-(1,1-difluoro-propyl)-benzylamide]
[1]
  IC50: < 100 nM
[2]
  IC50: < 100 nM

## O=C(NCc1ccc(OC(F)(F)F)cc1)[C@H]1CN(c2cnc3cncnc3n2)CCN1S(=O)(=O)c1ccc(OC(F)(F)F)cc1 [Example 627, (R)-4-pteridin-7-yl-1-(4-trifluoromethoxy-benzenesulfonyl)-piperazine-2-carboxylic acid 4-trifluoromethoxy-benzylamide]
[1]
  IC50: < 100 nM
[2]
  IC50: < 100 nM

## CCCc1ccc(CNC(=O)[C@H]2CN(c3cnc4[nH]c(=O)[nH]c4n3)CCN2S(=O)(=O)c2ccc(OC(F)(F)F)cc2)cc1 [Example 628, (R)-4-(2-oxo-2,3-dihydro-1H-imidazo[4,5-b]pyrazin-5-yl)-1-(4-trifluoromethoxy-benzenesulfonyl)-piperazine-2-carboxylic acid 4-propyl-benzylamide]
[1]
  IC50: < 100 nM
[2]
  IC50: 100 to 1000 nM

## O=C(NCc1ccc(Cl)cc1)[C@H]1CN(c2cnc3cncnc3n2)CCN1S(=O)(=O)c1ccc(OC(F)(F)F)cc1 [Example 629, (R)-4-pteridin-7-yl-1-(4-trifluoromethoxy-benzenesulfonyl)-piperazine-2-carboxylic acid 4-chloro-benzylamide]
[1]
  IC50: < 100 nM
[2]
  IC50: 100 to 1000 nM

## CN(C)c1ccc(CNC(=O)[C@H]2CN(c3cnc4cncnc4n3)CCN2S(=O)(=O)c2ccc(OC(F)(F)F)cc2)cn1 [Example 630, (R)-4-pteridin-7-yl-1-(4-trifluoromethoxy-benzenesulfonyl)-piperazine-2-carboxylic acid (6-dimethylamino-pyridin-3-ylmethyl)-amide]
[1]
  IC50: < 100 nM
[2]
  IC50: < 100 nM

## CCCc1ccc(CNC(=O)[C@H]2CN(c3ccc(C(=O)O)nc3)CCN2S(=O)(=O)c2ccc(OC(F)(F)F)cc2)cc1 [Example 631, 5-[(R)-3-(4-propyl-benzylcarbamoyl)-4-(4-trifluoromethoxy-benzenesulfonyl)-piperazin-1-yl]-pyridine-2-carboxylic acid]
[1]
  IC50: < 100 nM
[2]
  IC50: < 100 nM

## CCC(F)(F)c1ccc(CNC(=O)[C@H]2CN(c3cnc4ccccc4n3)CCN2S(=O)(=O)c2ccc(OC(F)(F)F)cc2)cc1 [Example 632, (R)-4-quinoxalin-2-yl-1-(4-trifluoromethoxy-benzenesulfonyl)-piperazine-2-carboxylic acid 4-(1,1-difluoro-propyl)-benzylamide]
[1]
  IC50: < 100 nM
[2]
  IC50: < 100 nM

## CCC(F)(F)c1ccc(CNC(=O)[C@H]2CN(c3nc4nc[nH]c(=O)c4s3)CCN2S(=O)(=O)c2ccc(OC(F)(F)F)cc2)cc1 [Example 633, (R)-4-(7-oxo-6,7-dihydro-thiazolo[4,5-d]pyrimidin-2-yl)-1-(4-trifluoromethoxy-benzenesulfonyl)-piperazine-2-carboxylic acid 4-(1,1-difluoro-propyl)-benzylamide]
[1]
  IC50: < 100 nM
[2]
  IC50: < 100 nM

## CCCn1ccc(CNC(=O)[C@H]2CN(C(C)=O)CCN2S(=O)(=O)c2ccc(OC(F)(F)F)cc2)cc1=O [Example 634, (R)-4-acetyl-1-(4-trifluoromethoxy-benzenesulfonyl)-piperazine-2-carboxylic acid (2-oxo-1-propyl-1,2-dihydro-pyridin-4-ylmethyl)-amide]
[1]
  IC50: > 1000 nM
[2]
  IC50: 100 to 1000 nM

## CCCc1ccc(CNC(=O)[C@H]2CN(C(C)=O)CCN2S(=O)(=O)c2ccc(OC(F)(F)F)cc2)cc1N [Example 635, (R)-4-acetyl-1-(4-trifluoromethoxy-benzenesulfonyl)-piperazine-2-carboxylic acid 3-amino-4-propyl-benzylamide]
[1]
  IC50: 100 to 1000 nM
[2]
  IC50: > 1000 nM

## COc1cccc(CNC(=O)[C@H]2CN(C(C)=O)CCN2S(=O)(=O)c2ccc(OC(F)(F)F)cc2)c1 [Example 636, (R)-4-acetyl-1-(4-trifluoromethoxy-benzenesulfonyl)-piperazine-2-carboxylic acid 3-methoxy-benzylamide]
[1]
  IC50: > 1000 nM
[2]
  IC50: > 1000 nM

## CC(=O)N1CCN(S(=O)(=O)c2ccc(OC(F)(F)F)cc2)[C@@H](C(=O)NCc2cccc(O)c2)C1 [Example 637, (R)-4-acetyl-1-(4-trifluoromethoxy-benzenesulfonyl)-piperazine-2-carboxylic acid 3-hydroxy-benzylamide]
[1]
  IC50: > 1000 nM
[2]
  IC50: > 1000 nM

## CCC(F)(F)c1ccc(CNC(=O)[C@H]2CN(c3cnc(CN)c(N)n3)CCN2S(=O)(=O)c2ccc(OC(F)(F)F)cc2)cc1 [Example 638, (R)-6′-amino-5′-aminomethyl-4-(4-trifluoromethoxy-benzenesulfonyl)-3,4,5,6-tetrahydro-2H-[1,2′]bipyrazinyl-3-carboxylic acid 4-(1,1-difluoro-propyl)-benzylamide]
[1]
  IC50: < 100 nM
[2]
  IC50: < 100 nM

## O=C(NCc1nc2ccccc2o1)[C@H]1CN(c2cnc3cncnc3n2)CCN1S(=O)(=O)c1ccc(OC(F)(F)F)cc1 [Example 639, (R)-4-pteridin-7-yl-1-(4-trifluoromethoxy-benzenesulfonyl)-piperazine-2-carboxylic acid (benzoxazol-2-ylmethyl)-amide]
[1]
  IC50: 100 to 1000 nM
[2]
  IC50: > 1000 nM

## CCC(F)(F)c1ccc(CNC(=O)[C@H]2CN(c3nc4nn[nH]c(=O)c4s3)CCN2S(=O)(=O)c2ccc(OC(F)(F)F)cc2)cc1 [Example 640, (R)-4-(4-oxo-3,4-dihydro-thiazolo[4,5-d][1,2,3]triazin-6-yl)-1-(4-trifluoromethoxy-benzenesulfonyl)-piperazine-2-carboxylic acid 4-(1,1-difluoro-propyl)-benzylamide]
[1]
  IC50: < 100 nM
[2]
  IC50: < 100 nM

## CC(=O)N1CCN(S(=O)(=O)c2ccc(OC(F)(F)F)cc2)[C@@H](C(=O)NCc2ccc(C(C)(C)C#N)cc2)C1 [Example 641, (R)-4-acetyl-1-(4-trifluoromethoxy-benzenesulfonyl)-piperazine-2-carboxylic acid 4-(cyano-dimethyl-methyl)-benzylamide]
[1]
  IC50: 100 to 1000 nM
[2]
  IC50: 100 to 1000 nM

## CC(=O)N1CCN(S(=O)(=O)c2ccc(OC(F)(F)F)cc2)[C@@H](C(=O)NCc2ccccc2-c2ccccc2)C1 [Example 642, (R)-4-acetyl-1-(4-trifluoromethoxy-benzenesulfonyl)-piperazine-2-carboxylic acid (biphenyl-2-ylmethyl)-amide]
[1]
  IC50: > 1000 nM
[2]
  IC50: > 1000 nM

## CC(=O)N1CCN(S(=O)(=O)c2ccc(OC(F)(F)F)cc2)[C@@H](C(=O)NCC2CCCCC2)C1 [Example 643, (R)-4-acetyl-1-(4-trifluoromethoxy-benzenesulfonyl)-piperazine-2-carboxylic acid cyclohexylmethyl-amide]
[1]
  IC50: > 1000 nM
[2]
  IC50: > 1000 nM

## CC(=O)N1CCN(S(=O)(=O)c2ccc(OC(F)(F)F)cc2)[C@@H](C(=O)NCC2CCN(C(=O)OC(C)(C)C)CC2)C1 [Example 644, 4-({[(R)-4-acetyl-1-(4-trifluoromethoxy-benzenesulfonyl)-piperazine-2-carbonyl]-amino}-methyl)-piperidine-1-carboxylic acid tert-butyl ester]
[1]
  IC50: > 1000 nM
[2]
  IC50: > 1000 nM

## COc1ccc(CNC(=O)[C@H]2CN(C(C)=O)CCN2S(=O)(=O)c2ccc(OC(F)(F)F)cc2)cc1O [Example 645, (R)-4-acetyl-1-(4-trifluoromethoxy-benzenesulfonyl)-piperazine-2-carboxylic acid 3-hydroxy-4-methoxy-benzylamide]
[1]
  IC50: > 1000 nM
[2]
  IC50: > 1000 nM

## CCCc1ccc(CNC(=O)[C@H]2CN(C(C)=O)CCN2S(=O)(=O)c2ccc(OC(F)(F)F)cc2)c(=O)[nH]1 [Example 646, (R)-4-acetyl-1-(4-trifluoromethoxy-benzenesulfonyl)-piperazine-2-carboxylic acid (2-oxo-6-propyl-1,2-dihydro-pyridin-3-ylmethyl)-amide]
[1]
  IC50: > 1000 nM
[2]
  IC50: > 1000 nM

## CCC(F)(F)c1ccc(CNC(=O)[C@H]2CN(c3nc4nsnc4nc3O)CCN2S(=O)(=O)c2ccc(OC(F)(F)F)cc2)cc1 [Example 647, (R)-4-(6-hydroxy-[1,2,5]thiadiazolo[3,4-b]pyrazin-5-yl)-1-(4-trifluoromethoxy-benzenesulfonyl)-piperazine-2-carboxylic acid 4-(1,1-difluoro-propyl)-benzylamide]
[1]
  IC50: 100 to 1000 nM
[2]
  IC50: > 1000 nM
